Test systems include UACC-257; UACC-62; OVCAR-5; MDA-MB-231; OVCAR-8; CAKI-1; IGROV-1; CCRF-CEM; COLO 205; OVCAR-4; 786-0; T47D; NCI-H226; BT-549; NCI/ADR-RES; HT-29; DU-145; SF-295; MDA-MB-435; SK-MEL-5.
What all share (test): NCI tumour cell line growth inhibition, 48 h

We go through 7 compounds from ChEMBL document CHEMBL1201862, “PubChem BioAssay data set” (2004).

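Each compound was tested at five concentrations against cells in 96-well plates for 48 hours. Abbreviation: GI50, concentration required for 50% inhibition of growth.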 Calls of active or inactive are those of the source. Rule as the data show it: active = GI50 up to about 1.1 µM and inactive = higher.

Regarding `COc1cc([C@@H]2c3cc4c(cc3[C@@H](c3c(O)cc(O)c5c3O[C@H](c3ccc(O)c(O)c3)[C@H](OC(=O)c3cc(O)c(O)c(O)c3)C5)[C@H]3COC(=O)[C@H]23)OCO4)cc(OC)c1OC`, the GI50 was 43.1 µM (inactive) with UACC-257; 4.73 µM (inactive) in the assay with UACC-62; 53.3 µM (inactive) in the assay with OVCAR-5; 4.52 µM (inactive) in the assay with MDA-MB-231; 7.1 µM (inactive) in the assay with OVCAR-8; 13.8 µM (inactive) with CAKI-1. Besides, the GI50 with IGROV-1 is 27 µM (inactive); with CCRF-CEM it was 2.44 µM (inactive); in the assay on COLO 205, 25.9 µM (inactive); in the assay with OVCAR-4, 16.6 µM (inactive); in the assay on 786-0, 12.6 µM (inactive); with T47D it was > 100 µM (inactive). For the same compound, the GI50 in the assay with NCI-H226 is 2.65 µM (inactive); in the assay with BT-549 it was > 34.4 µM (inactive); in the assay on NCI/ADR-RES it was 33 µM (inactive); in the assay on HT-29 it was 17.6 µM (inactive); with DU-145, 22.7 µM (inactive); in the assay with SF-295 it was 3.91 µM (inactive). Further, the figures for the GI50 with MDA-MB-435 and in the assay with SK-MEL-5 were 2.54 µM (inactive) and 7.38 µM (inactive), respectively.

In the case of `Cc1cc(S(=O)(=O)Nc2nc3ccccc3nc2-c2ccc(Cl)cc2)c(S)cc1Cl`, the GI50 with UACC-257 was 21.7 µM (inactive); in the assay with UACC-62, 12.2 µM (inactive); with OVCAR-5 it was 19.6 µM (inactive); with MDA-MB-231, 24.5 µM (inactive); in the assay on OVCAR-8 it was 23.2 µM (inactive); in the assay with CAKI-1, 18.7 µM (inactive). The GI50 is 12.4 µM (inactive) in the assay with IGROV-1; 21.7 µM (inactive) in the assay with CCRF-CEM; 16.4 µM (inactive) in the assay with COLO 205; 14.6 µM (inactive) in the assay on OVCAR-4; 21 µM (inactive) in the assay with 786-0; 14.5 µM (inactive) with T47D. Besides, the GI50 in the assay with NCI-H226 is 23.1 µM (inactive); with BT-549 it was 23.8 µM (inactive); in the assay with NCI/ADR-RES, 19.4 µM (inactive); in the assay on HT-29, 17.5 µM (inactive); in the assay with DU-145, 16.3 µM (inactive); in the assay with SF-295 it was 18.9 µM (inactive). The GI50 in the assay on MDA-MB-435 was 17.3 µM (inactive); in the assay with SK-MEL-5, 14 µM (inactive).

In the case of `Clc1cc2ccccc2c2ccccc12`, the GI50 in the assay on UACC-257 was 55.2 µM (inactive); in the assay with UACC-62, 62.4 µM (inactive); in the assay on OVCAR-5, > 100 µM (inactive); in the assay on MDA-MB-231 it was > 100 µM (inactive); in the assay on OVCAR-8, > 100 µM (inactive); in the assay with CAKI-1 it was 42 µM (inactive). For the same compound, the GI50 with IGROV-1 was 64 µM (inactive); in the assay with CCRF-CEM, < 0.01 µM (active); in the assay with COLO 205, 26.9 µM (inactive); in the assay on OVCAR-4 it was 42.1 µM (inactive); in the assay with 786-0, > 100 µM (inactive); with T47D it was 32 µM (inactive). The GI50 with NCI-H226 is > 100 µM (inactive); in the assay on BT-549, 49.2 µM (inactive); in the assay on NCI/ADR-RES, > 100 µM (inactive); with HT-29, 32.4 µM (inactive); with DU-145 it was 43 µM (inactive); with SF-295, 45.3 µM (inactive). Besides, the GI50 in the assay with MDA-MB-435 was 28.2 µM (inactive); in the assay on SK-MEL-5 it was 63.2 µM (inactive).

`CC(C)C[C@H](NC(=O)[C@H](Cc1ccccc1)NC(=O)CCc1ccccc1)B(O)O`: the GI50 with UACC-257, in the assay on UACC-62, in the assay on OVCAR-5, in the assay on MDA-MB-231, with OVCAR-8 and in the assay with CAKI-1 was < 0.01 µM (active) each time. Besides, the GI50 with IGROV-1, in the assay on CCRF-CEM, in the assay with COLO 205, in the assay on OVCAR-4, with 786-0 and in the assay on T47D was < 0.01 µM (active) each time. The GI50 in the assay with NCI-H226 is < 0.01 µM (active); in the assay with BT-549, < 0.01 µM (active); in the assay with NCI/ADR-RES it was 0.011 µM (active); in the assay on HT-29, < 0.01 µM (active); in the assay on DU-145, < 0.01 µM (active); in the assay with SF-295, < 0.01 µM (active). Also, the GI50 in the assay on MDA-MB-435 and with SK-MEL-5 was < 0.01 µM (active) each time.

Take `Nc1nc(Cl)cc(NCC2(O)CC(CO)C2)n1` (stereo not given): the GI50 with UACC-257, in the assay with UACC-62, with OVCAR-5, with MDA-MB-231, in the assay with OVCAR-8 and in the assay with CAKI-1 was > 100 µM (inactive) in each case. For the same compound, the GI50 with IGROV-1, with CCRF-CEM, in the assay on COLO 205, in the assay with OVCAR-4, with 786-0 and in the assay with T47D was > 100 µM (inactive) throughout. For the same compound, the GI50 in the assay with NCI-H226, with BT-549, in the assay with NCI/ADR-RES, with HT-29, with DU-145 and in the assay on SF-295 was > 100 µM (inactive) in each case. Moreover, the GI50 with MDA-MB-435 and in the assay on SK-MEL-5 was > 100 µM (inactive) each time.

Regarding `CN(C)CCNc1ccc(NCCN(C)C)c2c1C(=O)c1ncsc1C2=O`, the GI50 in the assay on UACC-257 is 18.5 µM (inactive); in the assay on UACC-62, 11.4 µM (inactive); in the assay with OVCAR-5, 21.8 µM (inactive); in the assay on MDA-MB-231, 15.9 µM (inactive); in the assay on OVCAR-8, 12.5 µM (inactive); with CAKI-1 it was 16.9 µM (inactive). In addition, the GI50 in the assay with IGROV-1 was 13.5 µM (inactive); in the assay on CCRF-CEM it was 3.08 µM (inactive); in the assay with COLO 205, 12.4 µM (inactive); with OVCAR-4, 10.2 µM (inactive); with 786-0, 9.1 µM (inactive); in the assay with T47D, > 100 µM (inactive). Also, the GI50 is 2.53 µM (inactive) with NCI-H226; 18.1 µM (inactive) in the assay on BT-549; 35.7 µM (inactive) in the assay with NCI/ADR-RES; 6.46 µM (inactive) in the assay on HT-29; 13.2 µM (inactive) with DU-145; 12.8 µM (inactive) with SF-295. The GI50 in the assay on MDA-MB-435 was 13.6 µM (inactive); with SK-MEL-5, 15.8 µM (inactive).

Consider `COc1c(O)cc2c(c1O)C(=O)C1=C(CCCC1)C2=O`, for which the GI50 with UACC-257 was 34 µM (inactive); in the assay with UACC-62, 20.3 µM (inactive); in the assay on OVCAR-5, 38.4 µM (inactive); in the assay with MDA-MB-231, 19 µM (inactive); in the assay with OVCAR-8, 20.4 µM (inactive); in the assay on CAKI-1, 27.5 µM (inactive). For the same compound, the GI50 is 12.6 µM (inactive) in the assay on IGROV-1; 1.87 µM (inactive) in the assay on CCRF-CEM; 19.1 µM (inactive) with COLO 205; 21.6 µM (inactive) in the assay on OVCAR-4; 17.3 µM (inactive) in the assay on 786-0; 17.9 µM (inactive) in the assay with T47D. The GI50 with NCI-H226 is 30.5 µM (inactive); in the assay on BT-549, 23 µM (inactive); in the assay with NCI/ADR-RES, 17.3 µM (inactive); with HT-29, 21.7 µM (inactive); in the assay on DU-145, 22.3 µM (inactive); with SF-295, 25.2 µM (inactive). The results for the GI50 in the assay on MDA-MB-435 and with SK-MEL-5 were 26.9 µM (inactive) and 23.9 µM (inactive), respectively.
